According to PubChem BioAssay (NCI):
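Assay format: 96-well plates, 48-hour exposure. At the GI50, growth is halved. TGI denotes the concentration required for complete inhibition of growth.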

What was measured:
Test in all cases: NCI tumour cell line growth inhibition, 48 h
786-0 renal = test system: 786-0 renal
A498 renal = test system: A498 renal
A549 NSCLC = test system: A549 NSCLC
ACHN renal = test system: ACHN renal
BT-549 breast = test system: BT-549 breast
CAKI-1 renal = test system: CAKI-1 renal
CCRF-CEM leukemia = test system: CCRF-CEM leukemia
COLO 205 colon = test system: COLO 205 colon
DU-145 prostate = test system: DU-145 prostate
EKVX NSCLC = test system: EKVX NSCLC
HCC-2998 colon = test system: HCC-2998 colon
HCT-116 colon = test system: HCT-116 colon
HCT-15 colon = test system: HCT-15 colon
HL-60(TB) leukemia = test system: HL-60(TB) leukemia
HOP-62 NSCLC = test system: HOP-62 NSCLC
HOP-92 NSCLC = test system: HOP-92 NSCLC
HS 578T breast = test system: HS 578T breast
HT29 colon = test system: HT29 colon
IGROV1 ovarian = test system: IGROV1 ovarian
K-562 leukemia = test system: K-562 leukemia
KM12 colon = test system: KM12 colon
LOX IMVI melanoma = test system: LOX IMVI melanoma
M14 melanoma = test system: M14 melanoma
MALME-3M melanoma = test system: MALME-3M melanoma
MCF7 breast = test system: MCF7 breast
MDA-MB-231 breast = test system: MDA-MB-231 breast
MDA-MB-435 = test system: MDA-MB-435
MOLT-4 leukemia = test system: MOLT-4 leukemia
NCI-H226 lung = test system: NCI-H226 lung
NCI-H23 lung = test system: NCI-H23 lung
NCI-H460 lung = test system: NCI-H460 lung
NCI-H522 lung = test system: NCI-H522 lung
NCI/ADR-RES ovarian = test system: NCI/ADR-RES ovarian
OVCAR-3 ovarian = test system: OVCAR-3 ovarian
OVCAR-4 ovarian = test system: OVCAR-4 ovarian
OVCAR-5 ovarian = test system: OVCAR-5 ovarian
OVCAR-8 ovarian = test system: OVCAR-8 ovarian
PC-3 prostate = test system: PC-3 prostate
RPMI-8226 leukemia = test system: RPMI-8226 leukemia
RXF 393 renal = test system: RXF 393 renal
SF-268 CNS = test system: SF-268 CNS
SF-295 CNS = test system: SF-295 CNS
SF-539 CNS = test system: SF-539 CNS
SK-MEL-2 melanoma = test system: SK-MEL-2 melanoma
SK-MEL-28 melanoma = test system: SK-MEL-28 melanoma
SK-MEL-5 melanoma = test system: SK-MEL-5 melanoma
SK-OV-3 ovarian = test system: SK-OV-3 ovarian
SN12C renal = test system: SN12C renal
SNB-75 CNS = test system: SNB-75 CNS
SR leukemia = test system: SR leukemia
SW-620 colon = test system: SW-620 colon
T-47D breast = test system: T-47D breast
TK-10 renal = test system: TK-10 renal
U251 CNS = test system: U251 CNS
UACC-257 melanoma = test system: UACC-257 melanoma
UACC-62 melanoma = test system: UACC-62 melanoma
UO-31 renal = test system: UO-31 renal

For `CCCCCCCCc1ccc(OCCOCC[N+](C)(C)CC)cc1` (tested in a mixture with another compound), the GI50 (786-0 renal) was 14.2 µM, the TGI (786-0 renal) was 28.8 µM and the GI50 (A498 renal) was 9.16 µM. For the same compound, the TGI (A498 renal) was 22 µM, the GI50 (A549 NSCLC) was 9.99 µM and the TGI (A549 NSCLC) was 23.1 µM. It also gave a GI50 (ACHN renal) of 15.6 µM, a TGI (ACHN renal) of 30.4 µM and a GI50 (BT-549 breast) of 3.03 µM. It also gave a TGI (BT-549 breast) of 9.8 µM, a GI50 (CAKI-1 renal) of 54.8 µM and a TGI (CAKI-1 renal) of over 100 µM. For the same compound, the GI50 (CCRF-CEM leukemia) was 3.2 µM, the TGI (CCRF-CEM leukemia) was 15.9 µM and the GI50 (COLO 205 colon) was 1.59 µM. It also gave a TGI (COLO 205 colon) of 3.21 µM, a GI50 (DU-145 prostate) of 8.09 µM and a TGI (DU-145 prostate) of 22.8 µM. It also gave a GI50 (EKVX NSCLC) of 4.6 µM, a TGI (EKVX NSCLC) of 18.7 µM and a GI50 (HCC-2998 colon) of 3.74 µM. For the same compound, the TGI (HCC-2998 colon) was 13.6 µM, the GI50 (HCT-116 colon) was 3.84 µM and the TGI (HCT-116 colon) was 14.8 µM. It also gave a GI50 (HCT-15 colon) of 24.8 µM, a TGI (HCT-15 colon) of over 100 µM and a GI50 (HL-60(TB) leukemia) of 1.47 µM. The TGI (HL-60(TB) leukemia) was 4.85 µM, the GI50 (HOP-62 NSCLC) was 5 µM and the TGI (HOP-62 NSCLC) was 17.2 µM. For the same compound, the GI50 (HOP-92 NSCLC) was 1.17 µM, the TGI (HOP-92 NSCLC) was 4.51 µM and the GI50 (HS 578T breast) was 3.2 µM. The TGI (HS 578T breast) was 16.6 µM, the GI50 (HT29 colon) was 3.1 µM and the TGI (HT29 colon) was 13.5 µM. It also gave a GI50 (IGROV1 ovarian) of 3.74 µM, a TGI (IGROV1 ovarian) of 14.7 µM and a GI50 (K-562 leukemia) of 3.06 µM. For the same compound, the TGI (K-562 leukemia) was 15.4 µM, the GI50 (KM12 colon) was 3.72 µM and the TGI (KM12 colon) was 13.8 µM. It also gave a GI50 (LOX IMVI melanoma) of 2.7 µM, a TGI (LOX IMVI melanoma) of 13.7 µM and a GI50 (M14 melanoma) of 4.07 µM. It also gave a TGI (M14 melanoma) of 17.2 µM, a GI50 (MALME-3M melanoma) of 1.93 µM and a TGI (MALME-3M melanoma) of 6.44 µM. The GI50 (MCF7 breast) was 3.05 µM, the TGI (MCF7 breast) was 12.6 µM and the GI50 (MDA-MB-231 breast) was 2.75 µM. The TGI (MDA-MB-231 breast) was 11.3 µM, the GI50 (MDA-MB-435) was 2.91 µM and the TGI (MDA-MB-435) was 11.2 µM. For the same compound, the GI50 (MOLT-4 leukemia) was 4.39 µM, the TGI (MOLT-4 leukemia) was 18.2 µM and the GI50 (NCI-H226 lung) was 4.31 µM. For the same compound, the TGI (NCI-H226 lung) was 19.2 µM, the GI50 (NCI-H23 lung) was 3.42 µM and the TGI (NCI-H23 lung) was 15.8 µM. For the same compound, the GI50 (NCI-H460 lung) was 3.94 µM, the TGI (NCI-H460 lung) was 14.5 µM and the GI50 (NCI-H522 lung) was 2.18 µM. It also gave a TGI (NCI-H522 lung) of 9.84 µM, a GI50 (NCI/ADR-RES ovarian) of over 100 µM and a TGI (NCI/ADR-RES ovarian) of over 100 µM. The GI50 (OVCAR-3 ovarian) was 2.79 µM, the TGI (OVCAR-3 ovarian) was 12.5 µM and the GI50 (OVCAR-4 ovarian) was 1.66 µM. For the same compound, the TGI (OVCAR-4 ovarian) was 10.8 µM, the GI50 (OVCAR-5 ovarian) was 7.5 µM and the TGI (OVCAR-5 ovarian) was 20.9 µM. The GI50 (OVCAR-8 ovarian) was 3.81 µM, the TGI (OVCAR-8 ovarian) was 15.4 µM and the GI50 (PC-3 prostate) was 3.12 µM. For the same compound, the TGI (PC-3 prostate) was 12.6 µM, the GI50 (RPMI-8226 leukemia) was 2.03 µM and the TGI (RPMI-8226 leukemia) was 6.82 µM. For the same compound, the GI50 (RXF 393 renal) was 10.5 µM, the TGI (RXF 393 renal) was 23.4 µM and the GI50 (SF-268 CNS) was 4.22 µM. The TGI (SF-268 CNS) was 16.9 µM, the GI50 (SF-295 CNS) was 13 µM and the TGI (SF-295 CNS) was 27 µM. For the same compound, the GI50 (SF-539 CNS) was 3.97 µM, the TGI (SF-539 CNS) was 15 µM and the GI50 (SK-MEL-2 melanoma) was 2.56 µM. For the same compound, the TGI (SK-MEL-2 melanoma) was 8.53 µM, the GI50 (SK-MEL-28 melanoma) was 3.25 µM and the TGI (SK-MEL-28 melanoma) was 15.4 µM. For the same compound, the GI50 (SK-MEL-5 melanoma) was 1.45 µM, the TGI (SK-MEL-5 melanoma) was 3.06 µM and the GI50 (SK-OV-3 ovarian) was 7.74 µM. It also gave a TGI (SK-OV-3 ovarian) of 20.2 µM, a GI50 (SN12C renal) of 3.07 µM and a TGI (SN12C renal) of 11.9 µM. It also gave a GI50 (SNB-75 CNS) of 2.12 µM, a TGI (SNB-75 CNS) of 9 µM and a GI50 (SR leukemia) of 3 µM. For the same compound, the TGI (SR leukemia) was 14.3 µM, the GI50 (SW-620 colon) was 3.97 µM and the TGI (SW-620 colon) was 16.1 µM. It also gave a GI50 (T-47D breast) of 3.14 µM, a TGI (T-47D breast) of 13.7 µM and a GI50 (TK-10 renal) of 14.8 µM. For the same compound, the TGI (TK-10 renal) was 29.1 µM, the GI50 (U251 CNS) was 1.8 µM and the TGI (U251 CNS) was 12.3 µM. It also gave a GI50 (UACC-257 melanoma) of 2.34 µM, a TGI (UACC-257 melanoma) of 6.8 µM and a GI50 (UACC-62 melanoma) of 1.88 µM. It also gave a TGI (UACC-62 melanoma) of 5.48 µM, a GI50 (UO-31 renal) of 17.5 µM and a TGI (UO-31 renal) of 45.4 µM.
